Test system: influenza A virus A/Aichi/2/68 (H3N2)
Test: Cytopathic effect (CPE) assay H3N2 in MDCK cells
Type: cell-based, influenza A virus (A/Aichi/2/68 (H3N2)); MDCK cells
Protocol: A possible measure of the […] antiviral activity of the compounds having the formula I or II is the CPE assay disclosed herein. […] In this connection, the reduction in the virus-mediated cytopathic effect (CPE) upon treatment with the compounds was calculated as follows: The cell viability of infected-treated and uninfected-treated cells was determined using an ATP-based cell viability assay (Promega). The response in relative luminescent units (RLU) of infected-untreated samples was subtracted from the response (RLU) of the infected-treated samples and then normalized to the viability of the corresponding uninfected sample resulting in % CPE reduction.
The influenza A virus (IAV) was obtained from American Tissue Culture Collection (A/Aichi/2/68 (H3N2); VR-547). Virus stocks were prepared by propagation of virus on Mardin-Darby canine kidney (MDCK; ATCC CCL-34) cells and infectious titres of virus stocks were determined by the 50% tissue culture infective dose (TCID50) analysis as described in Reed, L. J., and H. Muench. 1938, Am. J. Hyg. 27:493-497.
MDCK cells were seeded in 96-well plates at 2×10^4 cells/well using DMEM/Ham's F-12 (1:1) medium containing 10% foetal bovine serum (FBS), 2 mM L-glutamine and 1% antibiotics (all from PAA). Until infection the cells were incubated for 5 hrs at 37° C., 5.0% CO2 to form a -80% confluent monolayer on the bottom of the well. Each test compound was dissolved in DMSO and generally tested at 25 μM and 250 μM. In those cases where the compounds were not soluble at that concentration they were tested at the highest soluble concentration. The compounds were diluted in infection medium (DMEM/Ham's F-12 (1:1) containing 5 μg/ml trypsin, and 1% antibiotics) for a final plate well DMSO concentration of 1%. The virus stock was diluted in infection medium (DMEM/Ham's F-12 (1:1) containing 5 μg/m1Trypsin, 1% DMSO, and 1% antibiotics) to a theoretical multiplicity of infection (M01) of 0.05.
After removal of the culture medium and one washing step with PBS, virus and compound were added together to the cells. In the wells used for cytotoxicity determination (i.e. in the absence of viral infection), no virus suspension was added. Instead, infection medium was added. Each treatment was conducted in two replicates. After incubation at 37° C., 5% CO2 for 48 hrs, each well was observed microscopically for apparent cytotoxicity, precipitate formation, or other notable abnormalities. Then, cell viability was determined using
CellTiter-Glo luminescent cell viability assay (Promega). The supernatant was removed carefully and 65 μl of the reconstituted reagent were added to each well and incubated with gentle shaking for 15 min at room temperature. Then, 60 μl of the solution was transferred to an opaque plate and luminescence (RLU) was measured using Synergy HT plate reader (Biotek).
Relative cell viability values of uninfected-treated versus uninfected-untreated cells were used to evaluate cytotoxicity of the compounds. Substances with a relative viability below 80% at the tested concentration were regarded as cytotoxic and retested at lower concentrations.
Reduction in the virus-mediated cytopathic effect (CPE) upon treatment with the compounds was calculated as follows: The response (RLU) of infected-untreated samples was subtracted from the response (RLU) of the infected-treated samples and then normalized to the viability of the corresponding uninfected sample resulting in % CPE reduction.

| SMILES | CPE H3N2 reduction (%) (activity conc 50 (μM)) | also measured |
| --- | --- | --- |
| Cl.O=C(c1cc(N2CCC(F)(F)CC2)ccn1)N(O)Cc1ccccc1 | −3.2% |  |
| CN1CC=C(c2ccnc(C(=O)N(O)Cc3ccccc3)c2)CC1 | 10.6% |  |
| Cl.O=C(c1cc(NS(=O)(=O)Cc2ccc(F)cc2)ccn1)N(O)Cc1ccccc1 | −1.1% |  |
| Cl.O=C(c1cc(C2=CCCNC2)ccn1)N(O)Cc1ccccc1 | 9.5% |  |
| CN1CCN(c2ccnc(C(=O)N(C)O)c2)CC1 | 2.6% |  |
| CN(O)C(=O)c1cc(N2CCOCC2)ccn1 | 5.7% |  |
| Cl.O=C(c1cc(NS(=O)(=O)Cc2cccc(F)c2)ccn1)N(O)Cc1ccccc1 | 9.6% |  |
| O=C(c1cc(C2CCCNC2)ccn1)N(O)Cc1ccccc1 (centres unmarked) | 6.1% |  |
| Cl.O=C(c1cc(N2CCC(F)CC2)ccn1)N(O)Cc1ccccc1 | 34% |  |
| Cl.O=C(c1cc(NS(=O)(=O)Cc2cccc(Cl)c2)ccn1)N(O)Cc1ccccc1 | 9.5% |  |
| Cl.O=C(c1cc(NS(=O)(=O)Cc2cccc(C(F)(F)F)c2)ccn1)N(O)Cc1ccccc1 | 22.4% |  |
| O=C(NO)c1ccccn1 | 3.15% |  |
| Nc1ccccc1NC(=O)c1ccc(C(=O)NO)nc1 | −5.53% |  |
| O=C(c1cc(C2=CC3CCC(C2)N3)ccn1)N(O)Cc1ccccc1 (centres unmarked) | 5.49% |  |
| Cl.O=C(NO)c1cc(NS(=O)(=O)Cc2ccc(Cl)c(Cl)c2)ccn1 | 53.43% |  |
| Cl.O=C(NO)c1cc(NS(=O)(=O)Cc2cccc3cccnc23)ccn1 | 24.39% |  |
| Cc1c(-c2ccccc2)sc2nc(N)[nH]c(=O)c12 [SAV-7475] |  | CPE H3N2 reduction (%) (activity conc 5): 8.9% |
| Nc1nc2sc(Cc3ccccc3)cc2c(=O)[nH]1 [SAV-7517] |  | CPE H3N2 reduction (%) (activity conc 10): 39.3 13 −2.64% |
| Cc1c(Cc2ccccc2)sc2nc(N)[nH]c(=O)c12 [SAV-7521] |  | CPE H3N2 reduction (%) (activity conc 25): 64.7 6 33.6% |
| Nc1nc2sc(-c3ccccc3)cc2c(=O)[nH]1 [SAV-7549] | 65.5 −2.4 8.8% |  |

| SMILES | CPE H3N2 reduction (%) (activity conc 50 (μM)) | also measured |
| --- | --- | --- |
| COc1ccc(-c2sc3nc(N)[nH]c(=O)c3c2C)cc1 [SAV-7575] |  | CPE H3N2 reduction (%) (activity conc 20): 35.9 9.02 4% |
| Cc1c(-c2ccc(Cl)cc2)sc2nc(N)[nH]c(=O)c12 [SAV-7579] |  | CPE H3N2 reduction (%) (activity conc 20): 21.4 11.3 0.27% |
| Cc1c(-c2cccc(C(F)(F)F)c2)sc2nc(N)[nH]c(=O)c12 [SAV-7581] | 87.8% |  |
| Cc1c(-c2ccccc2)sc2nc(NCCCO)[nH]c(=O)c12 [SAV-7582] | 102.9 4.2 53.1% |  |
| Cc1ccc(-c2sc3nc(N)[nH]c(=O)c3c2C)cc1 [SAV-7585] |  | CPE H3N2 reduction (%) (activity conc 2.5): 28.9% |
| Cc1c(-c2ccncc2)sc2nc(N)[nH]c(=O)c12 [SAV-7586] |  | CPE H3N2 reduction (%) (activity conc 15): 81.2% |
| Cc1c(-c2cccnc2)sc2nc(N)[nH]c(=O)c12 [SAV-7589] | 63.1% |  |
| Cc1c(-c2cccc(C#N)c2)sc2nc(N)[nH]c(=O)c12 [SAV-7594] |  | CPE H3N2 reduction (%) (activity conc 5): 14.5% |
| Cc1c(-c2ccccc2F)sc2nc(N)[nH]c(=O)c12 [SAV-7598] |  | CPE H3N2 reduction (%) (activity conc 2): 21.3 3.7 11.4% |
| Cc1c(-c2ccc(F)cc2)sc2nc(N)[nH]c(=O)c12 [SAV-7601] | 69.2 1.1 44.3% |  |
| Cc1c(-c2ccc(Cl)c(C#N)c2)sc2nc(N)[nH]c(=O)c12 [SAV-7602] |  | CPE H3N2 reduction (%) (activity conc 20): 67.9 1.7 35.1% |
| CC(c1ccccc1)c1cc2c(=O)[nH]c(N)nc2s1 (centres unmarked) [SAV-7604] |  | CPE H3N2 reduction (%) (activity conc 20): −4.7 6.4% |
| Cc1c(-c2ccc(F)cc2F)sc2nc(N)[nH]c(=O)c12 [SAV-7610] |  | CPE H3N2 reduction (%) (activity conc 2): −1.6% |
| Cc1c(C2=CCNCC2)sc2nc(N)[nH]c(=O)c12 [SAV-7614] | 190 10.6% |  |
| Cc1c(-c2cc(C#N)ccc2F)sc2nc(N)[nH]c(=O)c12 [SAV-7615] |  | CPE H3N2 reduction (%) (activity conc 20): 59.2% |
| Cc1c(-c2cccc(Cl)c2F)sc2nc(N)[nH]c(=O)c12 [SAV-7616] |  | CPE H3N2 reduction (%) (activity conc 10): 68.7% |
| Cc1c(-c2cc(C#N)ccc2Cl)sc2nc(N)[nH]c(=O)c12 [SAV-7617] |  | CPE H3N2 reduction (%) (activity conc 2): 2 5.1% |
| Cc1c(-c2ccc(Cl)cc2F)sc2nc(N)[nH]c(=O)c12 [SAV-7618] | 77.4% |  |
| Cc1cc(-c2sc3nc(N)[nH]c(=O)c3c2C)ccc1Cl [SAV-7620] | 57.8% |  |
| Cc1c(-c2ccc(F)nc2F)sc2nc(N)[nH]c(=O)c12 [SAV-7621] |  | IC50 (Influenza A virus, H3N2, MDCK, read-out: CPE H3N2 IC50 [μM]): 70 µM; CPE H3N2 reduction (%) (activity conc 25): 14.3% |
